How the values were obtained:
[1] = biological target: T1, KRAS^G12C (Homo sapiens, UniProt P01116, G12C); test: RAS-binding domain (RBD) pulldown of active (GTP-bound) KRAS in KRAS^G12C-mutant cell lines treated with G12C inhibitors; assay type: cell-based
T1 construct: endogenous in cells; host or cells: H358, H2122, H2030, SW1573 (KRAS G12C-mutant lung cancer lines, ATCC)
Procedure: This was performed as described previously (42) by using the RAS activation kit (Thermo Scientific). Briefly, 50 μg whole cell lysates were incubated with 40 μg GST-RBD and 100 μL glutathione beads for 60 min followed by three washes in NP40 wash buffer and elution of pull-down fractions with 2×SDS PAGE loading dye. The samples were then subjected to western blotting with a KRAS specific (WH0003845M1) antibody (43).

[2] = biological target: T1, KRAS^G12C; test: GTPase assays of purified GTP-loaded KRAS^G12C incubated with GAP proteins (γ-phosphate, α-phosphate, continuous phosphate release); assay type: biochemical
Procedure: GTP[γ^32P] hydrolysis assay. KRAS proteins (0.5 μg) were reacted with 0.04 μM GTP[γ^32P] (6000 Ci/mmol; PerkinElmer Life Sciences) in 100 μL loading buffer (50 mM HEPES, pH 7.5, 50 mM NaCl, 1 mM DTT, 0.1 mM EGTA, 10 mM EDTA, and 1 mg/mL BSA) for 10 min at 30° C. (5, 40). Loading reactions were stopped by placing on ice and adding MgCl2 to a final concentration of 20 mM. The GTPase assays were performed at 30° C. in 100 μL mixtures containing 20 nM of loaded KRAS and either hydrolysis buffer (25 mM HEPES pH 7.5, 50 mM NaCl, 1 mM DTT, 1 mM MgCl2 and 1 mg/mL BSA) alone, or in combination with WCE or purified RGS3 (0.08-0.4 μg/μL). Equimolar comparisons of NF1, RASA1 and RGS3 were carried out using the continuous hydrolysis assay (see below). Reactions were stopped at the indicated time by filtering through 0.45-μm nitrocellulose membrane filters. The filters were washed 3 times with 0.2 mL of ice-cold hydrolysis buffer, air dried, and processed by autoradiography. Reaction rates were determined by fitting an exponential curve to the data, which was normalized to the baseline value. […]
Continuous hydrolysis assay (two-step detection of inorganic phosphate). […] The reaction was monitored by reading the absorbance at 360 nm every 10 to 20 s for ˜16-60 min at room temperature. […]

RGS3-assisted hydrolysis by KRAS^G12C slower than NF1-stimulated hydrolysis by KRAS^WT [2]	effect on GTP-hydrolysis by KRAS^G12C ([2]; purified proteins)	Compound	time required for maximal inhibition of KRAS in cells ([1]; media with 10% serum)	time required for maximal inhibition of KRAS in cells ([1]; serum-deprived media (suppresses nucleotide exchange))
		C=CC(=O)N1CCN(c2nc(OC[C@@H]3CCCN3C)nc3c2CCN(c2cccc4cccc(C)c24)C3)C[C@@H]1CC#N [MRTX1257]	~60 min	~20 min
1-2 orders of magnitude	enhanced GTP-hydrolysis	RGS3: regulator of G protein signaling 3, recombinant p75/p25 variants; GAP for Gαi/q subunit		

— patent US20240219403A1, “METHODS FOR INHIBITING KRAS ONCOPROTEIN THROUGH ENHANCED GTPASE ACTIVITY” (Memorial Sloan-Kettering Cancer Center, priority 2021, published 2024)
